Test results: patent US10815210B2, “Benzocyclobutane derivatives useful as dual SGLT1 / SGLT2 modulators” (Janssen Pharmaceutica NV, priority 2016, dated 2020)

Key:
human SGLT1 = biological target: T1, human SGLT1 (Homo sapiens, UniProt P13866); test: SGLT1 assay: Na-dependent 14C-AMG uptake in CHO-K1 cells stably expressing human SGLT1; assay type: cell-based; settings: for IC50: 500 μM AMG, 2 hours at 37° C.
T1 construct: expressed in transfected cells; host or cells: CHO-K1
T1 sequence (P13866 1-664): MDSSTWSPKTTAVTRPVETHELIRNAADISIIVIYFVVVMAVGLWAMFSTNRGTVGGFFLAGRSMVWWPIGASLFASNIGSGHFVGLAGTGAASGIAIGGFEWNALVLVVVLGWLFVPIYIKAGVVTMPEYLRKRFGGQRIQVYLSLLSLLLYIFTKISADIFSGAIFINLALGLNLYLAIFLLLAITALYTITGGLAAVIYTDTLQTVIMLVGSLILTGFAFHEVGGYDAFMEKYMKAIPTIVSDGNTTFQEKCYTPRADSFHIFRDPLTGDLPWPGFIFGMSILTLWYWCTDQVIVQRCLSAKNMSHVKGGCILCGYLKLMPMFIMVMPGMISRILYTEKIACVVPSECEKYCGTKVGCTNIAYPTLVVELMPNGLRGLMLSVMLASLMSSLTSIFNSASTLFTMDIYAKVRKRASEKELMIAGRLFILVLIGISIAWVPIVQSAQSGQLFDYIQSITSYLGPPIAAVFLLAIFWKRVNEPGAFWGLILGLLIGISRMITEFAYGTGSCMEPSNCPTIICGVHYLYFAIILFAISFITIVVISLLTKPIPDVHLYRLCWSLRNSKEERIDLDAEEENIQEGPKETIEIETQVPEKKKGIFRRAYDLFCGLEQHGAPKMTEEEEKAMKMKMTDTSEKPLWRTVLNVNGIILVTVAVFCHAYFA
How it was run: (§1)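 CHO-K1 cells stably expressing human SGLT1 or SGLT2, pretreated 24 h with 10 mM Na-butyrate, were exposed 10 min to compound (0.001-10 μM) in Na-containing HEPES/Tris buffer pH 7.4. Uptake of ^14C-AMG (500 μM final) ran 2 h at 37° C, then Na-dependent uptake was counted by scintillation.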

human SGLT2 = biological target: T2, human SGLT2 (Homo sapiens, UniProt P31639); test: SGLT2 assay: Na-dependent 14C-AMG uptake in CHO-K1 cells stably expressing human SGLT2; assay type: cell-based; settings: for IC50: 500 μM AMG, 2 hours at 37° C.
T2 construct: expressed in transfected cells; host or cells: CHO-K1
T2 sequence (P31639 1-672): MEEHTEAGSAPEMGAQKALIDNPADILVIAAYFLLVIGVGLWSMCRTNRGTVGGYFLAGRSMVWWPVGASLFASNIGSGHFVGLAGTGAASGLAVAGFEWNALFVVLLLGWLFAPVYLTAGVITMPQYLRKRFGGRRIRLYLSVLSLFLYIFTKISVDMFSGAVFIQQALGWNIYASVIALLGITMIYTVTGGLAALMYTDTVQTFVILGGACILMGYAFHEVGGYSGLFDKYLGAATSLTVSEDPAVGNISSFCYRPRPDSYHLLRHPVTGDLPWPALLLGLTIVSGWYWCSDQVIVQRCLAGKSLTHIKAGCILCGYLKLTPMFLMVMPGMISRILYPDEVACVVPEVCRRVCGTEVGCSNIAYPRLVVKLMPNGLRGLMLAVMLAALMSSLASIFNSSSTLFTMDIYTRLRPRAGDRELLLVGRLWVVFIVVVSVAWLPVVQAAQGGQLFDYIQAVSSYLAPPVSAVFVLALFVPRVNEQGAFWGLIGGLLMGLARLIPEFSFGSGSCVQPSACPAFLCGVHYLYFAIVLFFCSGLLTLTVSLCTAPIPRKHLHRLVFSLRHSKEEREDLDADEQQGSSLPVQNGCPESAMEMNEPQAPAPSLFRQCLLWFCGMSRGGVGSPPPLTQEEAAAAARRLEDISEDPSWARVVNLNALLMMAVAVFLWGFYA
How it was run: as §1

An inhibition at 0.3 µM (human SGLT1) of 20% and an inhibition at 0.03 µM (human SGLT2) of 84% were found for `OC[C@H]1O[C@@H](c2cc(Cc3ccc4c(c3)CC4)c(Cl)cc2OC(F)F)[C@H](O)[C@@H](O)[C@@H]1O` [Compound 37, (2S,3R,4R,5S,6R)-2-(4-chloro-2-(difluoromethoxy)-5-((1,2-dihydrocyclobutabenzen-4-yl)methyl)phenyl)-6-(hydroxymethyl)-tetrahydro-2H-pyran-3,4,5-triol] in this work.

An inhibition at 0.3 µM (human SGLT1) of 20% and an inhibition at 0.03 µM (human SGLT2) of 78% were found for `COc1cc(OC(F)F)c([C@@H]2O[C@H](CO)[C@@H](O)[C@H](O)[C@H]2O)cc1Cc1ccc2c(c1)CC2` [Compound 38, (2S,3R,4R,5S,6R)-2-(2-(difluoromethoxy)-5-((1,2-dihydrocyclobutabenzen-4-yl)methyl)-4-methoxyphenyl)-6-(hydroxymethyl)-tetrahydro-2H-pyran-3,4,5-triol] in this work.

An IC50 (human SGLT1) of 27 nM and an IC50 (human SGLT2) of 13 nM were found for `Cc1cc(OCF)c([C@@H]2O[C@H](CO)[C@@H](O)[C@H](O)[C@H]2O)cc1Cc1ccc2c(c1)CC2` [Compound 39, (2S,3R,4R,5S,6R)-2-(5-[bicyclo[4.2.0]octa-1(6),2,4-trien-3-ylmethyl]-2-(fluoromethoxy)-4-methylphenyl)-6-(hydroxymethyl)oxane-3,4,8-triol] in this work.

An IC50 (human SGLT1) of 149 nM and an IC50 (human SGLT2) of 1 nM were found for `OC[C@H]1O[C@@H](c2cc(Cc3ccc4c(c3)CC4)c(Cl)cc2OCF)[C@H](O)[C@@H](O)[C@@H]1O` [Compound 40, (2S,3R,4R,5S,6R)-2-(4-chloro-5-((1,2-dihydrocyclobutabenzen-4-yl)methyl)-2-(fluoromethoxy)phenyl)-6-(hydroxymethyl)-tetrahydro-2H-pyran-3,4,5-triol] in this work.

An IC50 (human SGLT1) of 106 nM and an IC50 (human SGLT2) of 18 nM were found for `COc1cc(OCF)c([C@@H]2O[C@H](CO)[C@@H](O)[C@H](O)[C@H]2O)cc1Cc1ccc2c(c1)CC2` [Compound 41, (2S,3R,4R,5S,6R)-2-(5-((1,2-dihydrocyclobutabenzen-4-yl)methyl)-2-(fluoromethoxy)-4-methoxyphenyl)-6-(hydroxymethyl)-tetrahydro-2H-pyran-3,4,5-triol] in this work.

An IC50 (human SGLT1) of 34 nM and an IC50 (human SGLT2) of 2 nM were found for `CCc1cc(OCF)c([C@@H]2O[C@H](CO)[C@@H](O)[C@H](O)[C@H]2O)cc1Cc1ccc2c(c1)CC2` [Compound 42, (2S,3R,4R,5S,6R)-2-(5-((1,2-dihydrocyclobutabenzen-4-yl)methyl)-4-ethyl-2-(fluoromethoxy)phenyl)-6-(hydroxymethyl)-tetrahydro-2H-pyran-3,4,5-triol] in this work.

An IC50 (human SGLT1) of 35 nM and an IC50 (human SGLT2) of 1 nM were found for `[2H]C([2H])(c1ccc2c(c1)CC2)c1cc([C@@H]2O[C@H](CO)[C@@H](O)[C@H](O)[C@H]2O)ccc1C` [Compound 51] in this work.

An IC50 (human SGLT1) of 80 nM and an IC50 (human SGLT2) of 1 nM were found for `[2H]C([2H])(c1ccc2c(c1)CC2)c1cc([C@@H]2O[C@H](CO)[C@@H](O)[C@H](O)[C@H]2O)c(OC)cc1C` [Compound 53, (2S,3R,4R,5S,6R)-2-(5-(dideuterium(1,2-dihydrocyclobutabenzen-4-yl)methyl)-2-methoxy-4-methylphenyl)-6-(hydroxymethyl)-tetrahydro-2H-pyran-3,4,6-triol] in this work.

An IC50 (human SGLT1) of 93 nM and an IC50 (human SGLT2) of 2 nM were found for `[2H]C([2H])(c1ccc2c(c1)CC2)c1cc([C@@H]2O[C@H](CO)[C@@H](O)[C@H](O)[C@H]2O)c(OC)cc1Cl` [Compound 56, (2S,3R,4R,5S,6R)-2-(5-[bicyclo[4.2.0]octa-(6),2,4-trien-3-yl(dideuterium)methyl]-4-chloro-2-methoxyphenyl)-6-(hydroxymethyl)oxane-3,4,5-triol] in this work.

An IC50 (human SGLT1) of 25 nM and an IC50 (human SGLT2) of 2 nM were found for `[2H]C([2H])(c1ccc2c(c1)CC2)c1cc([C@@H]2O[C@H](CO)[C@@H](O)[C@H](O)[C@H]2O)ccc1CC` [Compound 58, (2S,3R,4R,5S,6R)-2-(3-[bicyclo[4.2.0]octa-(6),2,4-trien-3-yl(dideuterium)methyl]-4-ethylphenyl)-6-(hydroxymethyl)oxane-3,4,5-triol] in this work.

An IC50 (human SGLT1) of 83 nM and an IC50 (human SGLT2) of 3 nM were found for `[2H]C([2H])(c1ccc2c(c1)CC2)c1cc([C@@H]2O[C@H](CO)[C@@H](O)[C@H](O)[C@H]2O)c(OC)cc1CC` [Compound 60, (2S,3R,4R,5S,6R)-2-(5-(dideuterium(1,2-dihydrocyclobutabenzen-4-yl)methyl)-4-ethyl-2-methoxyphenyl)-6-(hydroxymethyl)-tetrahydro-2H-pyran-3,4,5-triol] in this work.

An IC50 (human SGLT1) of 84 nM and an IC50 (human SGLT2) of 1 nM were found for `[2H]C1([2H])Cc2ccc(Cc3cc([C@@H]4O[C@H](CO)[C@@H](O)[C@H](O)[C@H]4O)c(OC)cc3C)cc21` [Compound 63, (2S,3R,4R,5S,6R)-2-(5-((2,2-dideuterium-1,2-dihydrocyclobutabenzen-4-yl)methyl)-2-methoxy-4-methylphenyl)-6-(hydroxymethyl)-tetrahydro-2H-pyran-3,4,5-triol] in this work.

An IC50 (human SGLT1) of 24 nM and an IC50 (human SGLT2) of 3 nM were found for `[2H]C1([2H])Cc2ccc(Cc3cc([C@@H]4O[C@H](CO)[C@@H](O)[C@H](O)[C@H]4O)ccc3C)cc21` [Compound 65, (2S,3R,4R,5S,6R)-2-[3-[(8,8-dideuterium)bicyclo[4.2.0]octa-1(6),2,4-trien-3-ylmethyl]-4-methylphenyl]-6-(hydroxymethyl)oxane-3,4,5-triol] in this work.

An IC50 (human SGLT1) of 32 nM and an IC50 (human SGLT2) of 3 nM were found for `[2H]C1([2H])Cc2ccc(Cc3cc([C@@H]4O[C@H](CO)[C@@H](O)[C@H](O)[C@H]4O)ccc3CC)cc21` [Compound 66, (2S,3R,4R,5S,6R)-2-(3-((2,2-dideuterium-1,2-dihydrocyclobutabenzen-4-yl)methyl)-4-ethylphenyl)-6-(hydroxymethyl)-tetrahydro-2H-pyran-3,4,5-triol] in this work.

An IC50 (human SGLT1) of 48 nM and an IC50 (human SGLT2) of 2 nM were found for `[2H]C1([2H])Cc2ccc(Cc3cc([C@@H]4O[C@H](CO)[C@@H](O)[C@H](O)[C@H]4O)c(OC)cc3Cl)cc21` [Compound 67, (2S,3R,4R,5S,6R)-2-(5-{[(8,8-dideuterium)bicyclo[4.2.0]octa-1(6),2,4-trien-3-yl]methyl}-4-chloro-2-methoxyphenyl)-6-(hydroxymethyl)oxane-3,4,5-triol] in this work.

An IC50 (human SGLT1) of 50 nM and an IC50 (human SGLT2) of 5 nM were found for `[2H]C1([2H])Cc2ccc(Cc3cc([C@@H]4O[C@H](CO)[C@@H](O)[C@H](O)[C@H]4O)c(OC)cc3CC)cc21` [Compound 69, (2S,3R,4R,5S,6R)-2-(5-[(8,8-Hz)bicyclo[4.2.0]octa-1(6),2,4-trien-3-ylmethyl]-4-ethyl-2-methoxyphenyl)-6-(hydroxymethyl)oxane-3,4,5-triol] in this work.

An inhibition at 0.3 µM (human SGLT1) of 85% and an inhibition at 0.03 µM (human SGLT2) of 35% were found for `[2H]C1([2H])Cc2ccc(Cc3cc([C@@H]4O[C@H](CO)[C@@H](O)[C@H](O)[C@H]4O)c(F)cc3C)cc21` [Compound 70, (2S,3R,4R,5S,6R)-2-(5-{[(8,8-dideuterium)bicyclo[4.2.0]octa-1(6),2,4-trien-3-yl]methyl}-2-fluoro-4-methylphenyl)-6-(hydroxymethyl)oxane-3,4,5-triol] in this work.

An IC50 (human SGLT1) of 71 nM and an IC50 (human SGLT2) of 3 nM were found for `[2H]C1([2H])Cc2ccc(Cc3cc([C@@H]4O[C@H](CO)[C@@H](O)[C@H](O)[C@H]4O)c(F)cc3Cl)cc21` [Compound 71, (2S,3R,4R,5S,6R)-2-{5-[(8,8-dideuterium)bicyclo[4.2.0]octa-1(6),2,4-trien-3-ylmethyl]-4-chloro-2-fluorophenyl}-6-(hydroxymethyl)oxane-3,4,5-triol] in this work.

An IC50 (human SGLT1) of 24 nM and an IC50 (human SGLT2) of 3 nM were found for `[2H]C1([2H])Cc2ccc(Cc3cc([C@@H]4O[C@H](CO)[C@@H](O)[C@H](O)[C@H]4O)c(F)cc3OC)cc21` [Compound 72, (2S,3R,4R,5S,6R)-2-{5-[(8,8-dideuterio)bicyclo[4.2.0]octa-1(6),2,4-trien-3-ylmethyl]-2-fluoro-4-methoxyphenyl}-6-(hydroxymethyl)oxane-3,4,5-triol] in this work.
